In patent US20110294874A1, “DIAGNOSIS AND THERAPY OF ORGAN DYSFUNCTION USING SPHINGANINE-1-PHOSPHATE” (The Trustees of Columbia University in the City of New York, priority 2008, published 2011):
Values joined by “and” are separate entries in the source; they are usually repeats but may differ in a detail not shown here. Equal entries are not always repeated.

What was measured:
[1] = tested on: C57BL/6 mice subjected to liver IR; test: Liver H&E histology after liver IR (percent necrosis, Suzuki score); type: in vivo, mouse; details: liver IR; for Suzuki score (0 = no injury, 12 = maximal injury): H&E liver
Experimental: (§1) Mice were anesthetized with intraperitoneal pentobarbital (50 mg/kg or to effect). Mice were placed under a heating lamp and on a 37° C. heating pad. After a midline laparotomy and intraperitoneal application of 20 U heparin, left lateral and median lobes of the liver were subjected to ischemia with a microaneurysm clip occluding the hepatic triad above the bifurcation. This method of partial hepatic ischemia results in a segmental (˜70%) hepatic ischemia but spares the right lobe of the liver and prevents mesenteric venous congestion by allowing portal decompression throughout the right and caudate lobes of the liver. The liver was then repositioned in the peritoneal cavity in its original location for 60 minutes. The liver was kept moist with gauze soaked in 0.9% normal saline. The body temperature was monitored by an infrared temperature sensor (Linear Laboratories, Fremont, Calif.) every 10 min. and maintained at 37° C. using a heating lamp and a heating pad. After 60 minutes, the liver was reperfused and the wound closed. Sham-operated mice were subjected to laparotomy and identical liver manipulations without vascular occlusion. Two, 4 and 24 hr after reperfusion, plasma was collected for the measurement of alanine aminotransferase (ALT), a common indicator of liver damage, as well as creatinine (Cr) a common indicator of kidney damage. The liver tissue subjected to IR was collected to measure percent liver necrosis (2, 4 and 24 hr after IR), neutrophil infiltration (with immunohistochemistry, 4 and 24 hr after IR), apoptosis (with terminal deoxynucleotidyl transferase-mediated dUTP nick end labeling staining, caspase 3 immunoblotting and DNA laddering, 24 hr after IR), and inflammation by RT-PCR for pro-inflammatory mRNAs (4 hr after IR).
Livers were also analyzed for the degree of hepatocellular damage using the Suzuki's criteria (Suzuki et al., Transplantation 1993, Vol. 55, pp. 1265-1272). To obtain a Suzuki score, 3 liver injury indices are graded: sinusoidal congestion (0-4), hepatocyte necrosis (0-4), and ballooning degeneration (0-4) are graded for a total score of 0-12. No necrosis, congestion, or centrilobular ballooning is given a score of 0 whereas severe congestion/ballooning and >60% lobular necrosis is given a value of 4.

[2] = tested on: C57BL/6 mice subjected to liver IR; test: Kidney H&E histology after liver IR; type: in vivo, mouse; details: vs vehicle-treated controls
Excerpt: Liver IR-induced AKI in mice shared similar histological changes observed in human AKI associated with liver failure, as observed in H&E slides of kidney sections taken from the mice (see FIG. 3). Multifocal acute tubular injury including individual cell necrosis involving the juxtamedullary proximal tubules of the S3 segment was observed. […] Endothelial apoptosis of peritubular capillaries was also visible in H&E sections as linear arrays of apoptotic bodies corresponding to the interstitial capillary lining endothelium. […] The number of glomeruli with detectable juxtaglomerular apparatus and the number of cells per juxtaglomerular apparatus were both increased after liver IR, indicating hyperplasia of the juxtaglomerular apparatus. […] Liver IR produced large necrotic areas of liver tissue. The average percentage of necrotic areas in liver samples taken from liver IR mice were 92%±2% (n=6), while no necrosis was found in sham-operated mice. Livers were also analyzed for the degree of hepatocellular damage.

[3] = tested on: C57BL/6 mice subjected to liver IR; test: Apoptosis (TUNEL, DNA laddering, caspase 3) and F-actin (phalloidin) in liver and kidney after liver IR; type: in vivo, mouse
Experimental: as §1
Apoptosis was detected in both liver and kidney taken from mice subjected to liver IR, through TUNEL staining, DNA laddering and caspase 3 fragmentation.

[4] = tested on: C57BL/6 mice subjected to liver IR; test: Pro-inflammatory mRNA (RT-PCR) and plasma TNF-α/IL-6 after liver IR; type: in vivo, mouse
Experimental: as §1
The extent of the suppression was different between kidney and liver. […]

[5] = tested on: SK2 KO mice subjected to liver IR; test: Liver IR in SK2 KO mice: plasma ALT and creatinine; type: in vivo, mouse; details: SK2KO, hepatic IR 24 h
Experimental: The effects of administering Sg1P (0.1 mg/kg i.v. and 0.2 mg/kg s.c.) on liver and renal injury were also determined in the KO mice and are also shown in Tables 9 and 10 below.

[6] = tested on: Nephrectomized C57BL/6 mice with liver IR; test: Nephrectomized C57BL/6 mice with 45 min. liver IR: serum ALT; type: in vivo, mouse
Experimental: Normally, 1 hour of liver IR results in serum ALT increasing to 15076±1174 U/L (N=6) 24 hours later. In nephrectomized mice, however, the rise in ALT was more severe, and it rose to 20237±2628 U/L (N=3) after only 45 minutes of liver IR. The nephrectomized mice were also less responsive to Sg1P treatment.

[7] = tested on: IHUVEC monolayers; test: Evans blue dye-albumin permeability of IHUVEC monolayers; type: cell-based, human
Experimental: (§2) IHUVEC—immortalized human umbilical vein endothelial cells (ATCC, P.O. Box 1549 Manassas, Va. 20108) or HRGEC—human renal glomerular endothelial cells (ScienCell Research Laboratories, 6076 Corte Del Cedro Carlsbad, Calif. 92011) were cultured within a humidified atmosphere of 5% CO2 in air and grown to confluence. When confluent, the cells were trypsinized and seeded onto 0.45 μm pore size polycarbonate filters at the base of inserts of 6.5 mm diameter Transwell chambers and cultured until confluence.
Human endothelial cell permeability was assessed with the Evans blue dye extravasation assay (Awad et al., 2006). The permeability characteristics of the resulting confluent monolayers were assessed by following the diffusion of albumin-conjugated Evan's blue dye from the upper to lower compartments of the Transwell chambers. After addition of dye, chambers were shaken and allowed to equilibrate for 10-30 min at 37° C. After equilibration, stimuli were added and dye levels in lower compartments intermittently assayed by spectrophotometric analysis.
The addition of TNF-α or thrombin induces apoptosis and increases cell permeability in cultured endothelial cells.

[8] = tested on: human renal glomerular endothelial cells (HRGEC); test: HRGEC apoptosis, kinase phosphorylation, HSP27 and F-actin; type: cell-based
Experimental: as §2
In further experiments, apoptosis was induced in human renal endothelial (HRGEC) cells with either TNF-α plus cycloheximide or H2O2, with or without Sg1P treatment. In both cases, the addition of Sg1P (1 uM) reduced PARP and caspase 3 fragmentations, which are indices of apoptosis (N=2, data not shown).

[9] = tested on: Sham-operated C57BL/6 mice; test: Sham-operated C57BL/6 mice: plasma ALT and creatinine; type: in vivo, mouse
Experimental: as §1, with “The liver tissue subjected to IR was collected to measure percent liver necrosis (2, 4 and 24 hr after IR), neutrophil infiltration (with immunohistochemistry, 4 and 24 hr after IR), apoptosis (with terminal deoxynucleotidyl transferase-mediated dUTP nick end labeling staining, caspase 3 immunoblotting and DNA laddering, 24 hr after IR), and inflammation by RT-PCR for pro-inflammatory mRNAs (4 hr after IR).” left out

[10] = nephrectomized, 45 min. liver IR

Question: Which results are given for `CCCCCCCCCCCCCCC[C@@H](O)[C@@H](N)COP(=O)(O)O` [Sg1P, sphinganine-1-phosphate]?
Answer: Suzuki score (0 = no injury, 12 = maximal injury) [1]: 5.2 ± 0.8; Suzuki score (0 = no injury, 12 = maximal injury) ([1]; listed as sphinganine 1-phosphate): 5.2±0.8; Average percent necrotic areas in liver ([1]; H&E): 44±8%; Indications of AKI in kidney H&E slides [2]: significantly less indications of AKI; Caspase 3 fragmentation in liver and kidney [3]: significantly reduced; TUNEL staining, DNA laddering in liver and kidney [3]: significantly reduced; F-actin structure in liver and kidney (phalloidin) ([3]; vs vehicle): better-preserved F-actin structure; Liver IR-induced ICAM-1 and MIP-2 mRNA upregulation in kidney ([4]; kidney): suppressed; Liver IR-induced upregulation of ICAM-1, KC, MCP-1 and MIP-2 mRNA in liver ([4]; liver): suppressed; Liver IR-induced increase in plasma TNF-α and IL-6 ([4]; plasma): almost eliminated; Creatinine (mean) [5]: 0.679 mg/dL; ALT (mean) ([5]; 0.1 mg/kg i.v. and 0.2 mg/kg s.c.): 7575.28 U/L; Reduction in the severity of liver injury (change in ALT levels) ([6]; nephrectomized mice): 16%; ALT (24 hrs. post-IR), individual mice [6, 10]: 15993.65 U/L and 19276.19 U/L and 15819.05 U/L; ALT (24 hrs. post-IR), mean [6, 10]: 17029±1124 U/L and 17029.63 U/L; Thrombin-induced permeability (albumin leak) ([7]; 5 U/ml thrombin): same cytoprotective effect; TNF-α-induced permeability (albumin leak) ([7]; TNF-α 50 ng/ml or 100 ng/ml, concurrent Sg1P): reduced the permeability of the cells to levels comparable to control; PARP and caspase 3 fragmentations ([8]; 1 uM, apoptosis induced with TNF-α plus cycloheximide or H2O2): reduced; Phalloidin staining (F-actin) ([8]; HRGEC treated with TNF-α, co-administration): restored the phalloidin staining; HSP27 phosphorylation and total HSP27 expression ([8]; HRGEC, 1 μM): induced the phosphorylation of HSP27, as well as increased expression of total HSP27; Phosphorylation of ERK and Akt ([8]; HRGEC, 1 μM): resulted in the phosphorylation; Mean ALT [9]: 80 U/L; Mean Creatinine [9]: 0.46 mg/dL
